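Each compound was tested at five concentrations against cells in 96-well plates for 48 hours. GI50 = concentration required for 50% inhibition of growth. TGI marks complete inhibition of growth.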

In PubChem BioAssay (NCI) one finds TGI and GI50 data, which are given here for 22 compounds.

Experiment in all cases: NCI-60 cell line screen, 48 h
Assay [1] relates to TK-10 renal.
For assay [2], the system named is U251 CNS.
Assay [3] has as its system HL-60(TB) leukemia.
Assay [4] has as its system NCI-H226 lung.
Assay [5] concerns OVCAR-8 ovarian.
Assay [6] concerns SF-539 CNS.
Assay [7] has as its system SR leukemia.
The test system of assay [8] is UACC-257 melanoma.
For assay [9], the system named is NCI-H460 lung.
Assay [10] relates to HOP-92 NSCLC.

For the compound `COC(=O)Oc1nn(C(=O)OC)c(=O)c2ccccc12` (tested in a mixture with another compound), the TGI in assay [1], in assay [2], in assay [3], in assay [4], in assay [5] and in assay [6] was above 100 µM in each case. The TGI in assay [7], in assay [8] and in assay [9] was above 100 µM throughout.
On to `Nc1nccc(C#Cc2cncnc2Nc2ccc(OCc3cccc(F)c3)c(Cl)c2)n1`, for which the GI50 was 4.5 µM in assay [1]; 3.82 µM in assay [2]; 5.7 µM in assay [3]; 4.14 µM in [4]; 4.94 µM in [5]; 5.58 µM in assay [6]. In addition, the GI50 in [7] is 3.18 µM; in assay [8] it was 3.92 µM; in assay [10], 3.73 µM; in [9] it was 5.13 µM. Further, the TGI stood at 8.22 µM in assay [1]; 7.42 µM in assay [2]; 14.5 µM in assay [3]; 7.83 µM in assay [4]; 24.8 µM in [5]; 14.1 µM in assay [6]. In addition, the TGI is above 25 µM in assay [7], 7.64 µM in assay [8], 8.95 µM in [10] and 10.3 µM in assay [9].
Take `CN(C)c1ccc(N=C(C#N)c2nc(N)nc(N3CCOCC3)n2)cc1`: the GI50 in [1] was 23 µM; in assay [2], 32.9 µM; in assay [3], 70.4 µM; in assay [4] it was above 100 µM; in [5], 38.1 µM; in [6] it was 21.4 µM. The GI50 in assay [7] was 34.9 µM; in [8] it was above 100 µM; in [10], 28.3 µM; in [9], 48.1 µM. Moreover, the TGI in [1] was 63.6 µM; in assay [2] it was above 100 µM; in assay [3] it was above 100 µM; in assay [4], above 100 µM; in [5], above 100 µM; in [6], 46.1 µM. In addition, the TGI in assay [7], in assay [8], in [10] and in assay [9] was above 100 µM in each case.
Consider `CCOC(=O)/C(=C/c1c(-c2ccccc2)[nH]c2ccccc12)C(=O)c1ccc(Cl)cc1`, for which the GI50 in assay [1] was 28.2 µM; in assay [2] it was 3.85 µM; in assay [3], 1.99 µM; in [4] it was 5.6 µM; in assay [5], 5.75 µM; in assay [6], 4.23 µM. Further, the GI50 is 3.14 µM in [7], 6.49 µM in assay [8], 1.93 µM in [10] and 3.03 µM in assay [9]. The TGI in assay [1] is above 100 µM; in [2], above 100 µM; in [3], 7.59 µM; in [4], above 100 µM; in assay [5], above 100 µM; in assay [6], above 100 µM. Further, the TGI in [7] was 6.42 µM; in assay [8] it was above 100 µM; in [10] it was 15 µM; in [9], 10.3 µM.
As to `CCN1N=CSC12C(=O)N(c1ccccc1)C(=O)N2c1ccccc1` (stereo not given), the TGI in assay [1], in assay [2], in assay [3], in [4], in [5] and in assay [6] was above 100 µM in each case. Moreover, the TGI in assay [7], in assay [8], in [10] and in assay [9] was above 100 µM each time.
On to `CC[C@]12C=CCN3CC[C@]4(C(=C(C(=O)OC)C1)Nc1ccccc14)[C@@H]32`, for which the GI50 in assay [1] is 4.86 µM; in assay [2], 3.64 µM; in assay [3] it was 3.18 µM; in assay [5] it was 3.75 µM; in [6] it was 3.09 µM; in assay [7], 2.55 µM. Moreover, the values for the GI50 in [8], in assay [10] and in assay [9] were 5.06 µM, 2.28 µM and 4.11 µM, respectively. Moreover, the TGI in assay [1] was 17.6 µM; in assay [2], 16.4 µM; in assay [3], 11.5 µM; in assay [5], above 100 µM; in assay [6] it was 10.1 µM; in [7], 30.7 µM. Moreover, the TGI in assay [8] turned out to be 26.5 µM; in assay [10], 9.27 µM; in assay [9], 16.3 µM.
`COc1ccc(C(NCCNC(c2ccc(OC)c(OC)c2)c2cc3c(cc2O)OCO3)c2cc3c(cc2O)OCO3)cc1OC` (stereo not given): the TGI in assay [1] came to 12.7 µM; in assay [2] it was 7.03 µM; in assay [3], 4.69 µM; in [4] it was 39.1 µM; in assay [6], 6.09 µM; in assay [7] it was 3.43 µM. In addition, the TGI stood at 9.97 µM in assay [8], 17.1 µM in assay [10] and 18.3 µM in assay [9].
`COC(=O)C1(C)CCc2c(ccc3ccccc23)C1=O` (stereo not given): the TGI is 95.7 µM in assay [1]; above 100 µM in assay [2]; above 100 µM in assay [3]; above 100 µM in assay [5]; above 100 µM in assay [6]; above 100 µM in assay [7]. Also, the TGI in [8] is 55.2 µM; in assay [10] it was above 100 µM; in assay [9], above 100 µM.
Take `COc1cc(-c2[nH]ncc2CCCC(=O)Nc2ccccc2[N+](=O)[O-])ccc1O`: the TGI in assay [1], in assay [2], in assay [3], in assay [4], in [5] and in [6] was above 100 µM throughout. In addition, the TGI in [7], in assay [8] and in [10] was above 100 µM in each case.
`Cn1cccc1C1CC(=O)N(CCC[Se]C#N)C1=O` (stereo not given): the GI50 is 1.79 µM in assay [1]; 1.72 µM in [2]; 2.11 µM in assay [3]; 1.62 µM in [4]; 2.05 µM in assay [5]; 1.96 µM in [6]. Besides, the figures for the GI50 in [7], in [8] and in [9] were 2.76 µM, 1.95 µM and 2.05 µM, respectively. Further, the TGI stood at 4.06 µM in assay [1]; 3.48 µM in assay [2]; 4.68 µM in assay [3]; 4.3 µM in assay [4]; 4.44 µM in assay [5]; 3.66 µM in assay [6]. Besides, the TGI was above 100 µM in [7], 4.73 µM in assay [8] and 5.93 µM in [9].
On to `O=[N+]([O-])c1ccc(N=Nc2c(O)[nH]c3ccc(Br)cc23)c([N+](=O)[O-])c1`, for which the TGI was 37.8 µM in assay [1]; 16.3 µM in assay [2]; 4.77 µM in [3]; 18.9 µM in [5]; 10.5 µM in [7]; 15.6 µM in assay [8]. Moreover, in assay [10], the TGI amounted to 5.1 µM.
Turning to `COc1cc2c(c(Br)c1N)-c1cc(Br)c(N)cc1C2=O`, the GI50 in assay [1] was 0.354 µM; in assay [2] it was 4.58 µM; in assay [3] it was above 100 µM; in [5], 4.9 µM; in assay [6] it was 4.93 µM; in assay [7], 0.0592 µM. Further, the GI50 in assay [8] was above 100 µM; in assay [10], 2.98 µM; in assay [9], 3.21 µM. Also, the TGI in assay [1], in assay [2], in assay [3], in assay [5], in [6] and in assay [7] was above 100 µM each time. The TGI in [8], in assay [10] and in assay [9] was above 100 µM each time.
As to `c1ccc2c(c1)SCCCSCCCS2`, the TGI in assay [1] was above 100 µM; in assay [2] it was above 100 µM; in assay [3], 74.5 µM; in assay [5], above 100 µM; in assay [6], above 100 µM; in [7], above 100 µM. Also, the TGI in assay [8], in [10] and in assay [9] was above 100 µM each time.
Turning to `CCOC(=O)c1c(-c2ccccc2)[nH]c2ccccc2c1=O`, the TGI in [1], in assay [2], in assay [3], in [5], in assay [7] and in assay [8] was above 100 µM throughout. Further, the TGI in assay [10] and in assay [9] was above 100 µM throughout.
With `Cc1nc(N=C(N)N)nc2ccc3ccccc3c12`, the GI50 in assay [2] is 0.676 µM; in assay [3], 2.25 µM; in assay [4], 1.29 µM; in [5] it was 0.811 µM; in assay [6], 1.39 µM; in assay [7], 0.423 µM. Further, the GI50 is 1.46 µM in assay [8] and 2.31 µM in [9]. In addition, the TGI in assay [2] turned out to be 2.29 µM; in assay [3], 5.41 µM; in [4], 3.58 µM; in assay [5] it was 3.91 µM; in assay [6], 2.98 µM; in [7], 2.26 µM. Besides, the TGI in assay [8] came out at 4.17 µM; in [9], 6.56 µM.
Regarding `CC1(C)CC[C@]2(C(=O)O)CCC3(C)C(=CCC4[C@@]5(C)CC[C@H](OC6OCC(O)C(O)C6OC6OC(CO)C(O)C(O)C6O)C(C)(C)C5CC[C@]43C)C2C1` (stereo not given in full), the TGI was 4.42 µM in assay [1]; 3.4 µM in assay [2]; 3.38 µM in [4]; 4.12 µM in [5]; 4.31 µM in assay [6]; 5.87 µM in assay [7]. In addition, the values for the TGI in assay [8], in assay [10] and in assay [9] were 9.21 µM, 3.69 µM and 4.22 µM, respectively.
`Nc1ccc(C(=O)O)c2[nH]c3ccccc3c(=O)c12`: the TGI in assay [1], in assay [2], in assay [3], in [5], in assay [6] and in assay [7] was above 100 µM each time. For the same compound, the TGI in [8], in assay [10] and in assay [9] was above 100 µM throughout.
Turning to `COc1ccc(C(=O)Nc2ccccc2C#N)cc1`, the TGI in assay [1], in [2], in [3], in [5], in [6] and in [7] was above 100 µM each time. In addition, the TGI in assay [8], in assay [10] and in [9] was above 100 µM in each case.
In the case of `Cc1cc(C)c2c(c1C)CN1CN2Cc2c(C)c(C)cc(C)c21`, the TGI in assay [1] is above 100 µM; in assay [2], above 100 µM; in assay [3], 46.3 µM; in [4], above 100 µM; in assay [5], above 100 µM; in [6] it was above 100 µM. In addition, the TGI in [7], in assay [10] and in assay [9] was above 100 µM throughout.
Take `CNS(=O)(=O)NN(C)S(=O)(=O)c1ccc(C)cc1`: the TGI in assay [1], in [3], in assay [5], in assay [6], in assay [7] and in [8] was above 100 µM throughout. The TGI in [10] and in assay [9] was above 100 µM each time.
For the compound `CC1(C)CC(C2CC(C)(C)CC(C)(C)[C@H]2O)[C@@H](O)C(C)(C)C1` (stereo not given in full), the TGI in assay [1], in [2], in assay [3], in assay [4], in assay [5] and in [6] was above 100 µM each time. Moreover, the TGI in assay [7], in [8] and in assay [9] was above 100 µM each time.
On to `COc1cccc(C2C3=C(COC3=O)N(CCO)c3cc4c(cc32)CCC4)c1` (stereo not given), for which the GI50 was 2.13 µM in assay [1]; 0.143 µM in assay [2]; 0.111 µM in assay [3]; 0.274 µM in assay [4]; 0.098 µM in [5]; 0.0457 µM in assay [6]. For the same compound, the GI50 in assay [7] is 0.015 µM; in assay [8], 32.6 µM; in [9], 0.0426 µM. For the same compound, the TGI in [1] is above 50 µM; in assay [2] it was 11.5 µM; in [3], 0.314 µM; in assay [4] it was above 27.8 µM; in assay [5], above 17.1 µM; in assay [7], 0.165 µM. For the same compound, the TGI was above 50 µM in [8] and 0.319 µM in assay [9].
